Experiments:
[1] = target: T1, Interstitial collagenase (Homo sapiens, UniProt P03956); experiment: biochemical; assay type: tissue-based, Rheumatoid synovial fibroblasts;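 note: MMP-1 enzyme inhibition assay using a peptide substrate; in other assays of this panel Not Active means under 50% inhibition at 10 µM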
T1 sequence (P03956 whole entry): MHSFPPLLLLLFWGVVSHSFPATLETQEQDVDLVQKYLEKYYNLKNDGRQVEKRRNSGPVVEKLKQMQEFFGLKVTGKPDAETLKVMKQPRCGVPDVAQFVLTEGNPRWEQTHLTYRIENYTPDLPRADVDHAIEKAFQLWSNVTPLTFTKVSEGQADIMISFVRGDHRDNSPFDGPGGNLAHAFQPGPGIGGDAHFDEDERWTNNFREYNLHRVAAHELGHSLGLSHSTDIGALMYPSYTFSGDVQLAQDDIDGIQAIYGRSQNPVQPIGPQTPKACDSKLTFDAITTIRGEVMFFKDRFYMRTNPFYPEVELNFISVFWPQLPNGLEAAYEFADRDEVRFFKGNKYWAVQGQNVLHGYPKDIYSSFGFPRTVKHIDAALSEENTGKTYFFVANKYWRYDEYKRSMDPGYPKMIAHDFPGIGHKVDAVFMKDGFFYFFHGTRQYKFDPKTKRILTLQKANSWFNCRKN

[2] = DRUGMATRIX: Leukotriene, BLT (LTB4) radioligand binding (ligand: [3H]LTB4); assay type: cell membranes, Membrane; details: u-937; Not Active = under 50% inhibition at 10 µM
[3] = target: T2, Adenosine receptor A1 (Homo sapiens, UniProt P30542); assay type: cell membranes, CHO, Membrane; details: cho;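 note: radioligand binding assay at the adenosine A1 receptor, with DPCPX serving as the labelled ligand; in other assays of this panel Not Active means under 50% inhibition at 10 µM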
T2 sequence (P30542 whole entry): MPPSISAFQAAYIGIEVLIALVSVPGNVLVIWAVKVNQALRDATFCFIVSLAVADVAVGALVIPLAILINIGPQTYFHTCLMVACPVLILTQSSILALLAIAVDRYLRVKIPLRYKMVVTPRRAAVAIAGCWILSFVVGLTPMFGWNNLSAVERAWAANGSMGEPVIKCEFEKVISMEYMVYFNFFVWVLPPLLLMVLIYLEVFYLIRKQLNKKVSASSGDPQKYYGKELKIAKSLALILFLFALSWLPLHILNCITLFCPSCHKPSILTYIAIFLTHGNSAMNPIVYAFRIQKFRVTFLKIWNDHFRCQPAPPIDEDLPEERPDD

[4] = target: T3, C-X-C chemokine receptor type 2 (Homo sapiens, UniProt P25025); assay type: cell membranes, Membrane; details: cho-k1; note: in other assays of this panel Not Active means under 50% inhibition at 10 µM
T3 sequence (P25025 whole entry): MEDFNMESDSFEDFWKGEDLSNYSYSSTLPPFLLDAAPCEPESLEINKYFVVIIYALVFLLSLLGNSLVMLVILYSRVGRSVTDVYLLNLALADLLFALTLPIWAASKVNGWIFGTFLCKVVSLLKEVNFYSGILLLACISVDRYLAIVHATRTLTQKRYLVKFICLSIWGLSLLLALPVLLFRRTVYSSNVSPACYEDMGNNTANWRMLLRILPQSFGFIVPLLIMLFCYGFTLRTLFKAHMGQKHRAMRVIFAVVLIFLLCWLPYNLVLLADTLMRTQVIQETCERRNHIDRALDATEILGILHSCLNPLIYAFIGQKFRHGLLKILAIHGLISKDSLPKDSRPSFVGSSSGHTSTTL

[5] = target: Cytochrome P450 2D6 (Homo sapiens, UniProt P10635); details: bti-tn-5b1-4; note: in other assays of this panel Not Active means under 50% inhibition at 10 µM
[6] = DRUGMATRIX: Interleukin IL-1 radioligand binding (ligand: [125I] interleukin 1beta); assay type: cell membranes, Membrane; details: nih3t3; Not Active = under 50% inhibition at 10 µM
[7] = DRUGMATRIX: Calcium Channel Type L, Dihydropyridine radioligand binding (ligand: [3H] Nitrendipine); assay type: cell membranes, Rattus norvegicus, Wistar, Cerebral cortex, Membrane; details: Not Active = under 50% inhibition at 10 µM
[8] = target: Mu-type opioid receptor (Homo sapiens, UniProt P35372); experiment: DRUGMATRIX: Opiate mu (OP3, MOP) radioligand binding (ligand: [3H] Diprenorphine); assay type: cell membranes, CHO-K1, Membrane; details: cho-k1; Not Active = under 50% inhibition at 10 µM
Chain of Mu-type opioid receptor (P35372 whole entry): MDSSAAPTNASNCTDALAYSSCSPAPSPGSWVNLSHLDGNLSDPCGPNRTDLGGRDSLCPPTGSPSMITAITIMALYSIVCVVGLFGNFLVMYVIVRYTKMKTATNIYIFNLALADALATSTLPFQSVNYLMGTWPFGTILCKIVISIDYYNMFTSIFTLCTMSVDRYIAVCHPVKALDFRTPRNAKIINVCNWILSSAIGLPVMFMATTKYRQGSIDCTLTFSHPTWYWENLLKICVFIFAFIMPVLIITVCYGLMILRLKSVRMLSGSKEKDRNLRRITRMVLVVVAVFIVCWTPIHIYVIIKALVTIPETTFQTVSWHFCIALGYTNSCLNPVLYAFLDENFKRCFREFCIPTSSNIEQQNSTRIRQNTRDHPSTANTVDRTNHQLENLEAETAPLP

Chain of Cytochrome P450 2D6 (P10635 whole entry): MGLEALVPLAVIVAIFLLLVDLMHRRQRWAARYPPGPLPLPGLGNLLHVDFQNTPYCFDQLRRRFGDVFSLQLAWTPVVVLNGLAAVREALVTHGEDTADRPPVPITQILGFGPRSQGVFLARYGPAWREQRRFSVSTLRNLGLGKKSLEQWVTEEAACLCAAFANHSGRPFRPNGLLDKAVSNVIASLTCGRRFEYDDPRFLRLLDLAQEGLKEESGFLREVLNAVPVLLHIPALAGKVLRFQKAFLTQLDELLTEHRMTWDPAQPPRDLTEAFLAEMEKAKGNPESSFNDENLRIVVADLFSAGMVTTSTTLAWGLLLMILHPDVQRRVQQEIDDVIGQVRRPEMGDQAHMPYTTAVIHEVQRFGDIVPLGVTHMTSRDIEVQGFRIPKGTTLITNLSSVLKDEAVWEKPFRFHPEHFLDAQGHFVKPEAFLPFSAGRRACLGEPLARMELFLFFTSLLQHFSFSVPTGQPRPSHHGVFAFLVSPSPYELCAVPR

CNC1(c2ccccc2Cl)CCCCC1=O (stereo not given) [KETAMINE]
Not Active: IC50 [1] | IC50 [2] | Ki [2] | IC50 [3] | IC50 [4] | IC50 [5] | Ki [5] | IC50 [6] | Ki [6] | IC50 [7] | Ki [7] | IC50 [8]

N#Cc1ccc(C(c2ccc(C#N)cc2)n2cncn2)cc1 [LETROZOLE]
Not Active: IC50 [1] | IC50 [2] | Ki [2] | IC50 [3] | IC50 [4] | IC50 [5] | Ki [5] | IC50 [6] | Ki [6] | IC50 [7] | Ki [7] | IC50 [8]

CCN1CCC[C@H]1CNC(=O)c1cc(S(N)(=O)=O)ccc1OC [LEVOSULPIRIDE]
Not Active: IC50 [1] | IC50 [2] | Ki [2] | IC50 [3] | IC50 [4] | IC50 [5] | Ki [5] | IC50 [6] | Ki [6] | IC50 [7] | Ki [7] | IC50 [8]

O=C1Nc2ccc(Cl)cc2C(c2ccccc2Cl)=NC1O (stereo not given) [LORAZEPAM]
Not Active: IC50 [1] | IC50 [2] | Ki [2] | IC50 [3] | IC50 [4] | IC50 [5] | Ki [5] | IC50 [6] | Ki [6] | IC50 [7] | Ki [7] | IC50 [8]

COc1c2occc2cc2ccc(=O)oc12 [METHOXSALEN]
Not Active: IC50 [1] | IC50 [2] | Ki [2] | IC50 [3] | IC50 [4] | IC50 [5] | Ki [5] | IC50 [6] | Ki [6] | IC50 [7] | Ki [7] | IC50 [8]

Cc1cccc(C)c1OCC(C)N (stereo not given) [MEXILETINE]
Not Active: IC50 [1] | IC50 [2] | Ki [2] | IC50 [3] | IC50 [4] | IC50 [5] | Ki [5] | IC50 [6] | Ki [6] | IC50 [7] | Ki [7] | IC50 [8]

Nc1cc(N2CCCCC2)nc(N)[n+]1[O-] [MINOXIDIL]
Not Active: IC50 [1] | IC50 [2] | Ki [2] | IC50 [3] | IC50 [4] | IC50 [5] | Ki [5] | IC50 [6] | Ki [6] | IC50 [7] | Ki [7] | IC50 [8]

CO[C@H]1/C=C/O[C@@]2(C)Oc3c(C)c(O)c4c(O)c(c(/C=N/N5CCN(C6CCCC6)CC5)c(O)c4c3C2=O)NC(=O)/C(C)=C\C=C\[C@H](C)[C@H](O)[C@@H](C)[C@@H](O)[C@@H](C)[C@H](OC(C)=O)[C@@H]1C [RIFAPENTINE]
Not Active: IC50 [1] | IC50 [2] | Ki [2] | IC50 [3] | IC50 [4] | IC50 [5] | Ki [5] | IC50 [6] | Ki [6] | IC50 [7] | Ki [7] | IC50 [8]

CCCCOc1cc(CC2CNC(=O)N2)ccc1OC (stereo not given) [RO-201724]
Not Active: IC50 [1] | IC50 [2] | Ki [2] | IC50 [3] | IC50 [4] | IC50 [5] | Ki [5] | IC50 [6] | Ki [6] | IC50 [7] | Ki [7] | IC50 [8]

O=C(Oc1ccccc1C(=O)O)c1ccccc1O [SALSALATE]
Not Active: IC50 [1] | IC50 [2] | Ki [2] | IC50 [3] | IC50 [4] | IC50 [5] | Ki [5] | IC50 [6] | Ki [6] | IC50 [7] | Ki [7] | IC50 [8]

O=C(O)c1cn(-c2ccc(F)cc2)c2cc(N3CCNCC3)c(F)cc2c1=O [SARAFLOXACIN]
Not Active: IC50 [1] | IC50 [2] | Ki [2] | IC50 [3] | IC50 [4] | IC50 [5] | Ki [5] | IC50 [6] | Ki [6] | IC50 [7] | Ki [7] | IC50 [8]

CC(C)NCC(O)c1ccc(NS(C)(=O)=O)cc1 (stereo not given) [SOTALOL]
Not Active: IC50 [1] | IC50 [2] | Ki [2] | IC50 [3] | IC50 [4] | IC50 [5] | Ki [5] | IC50 [6] | Ki [6] | IC50 [7] | Ki [7] | IC50 [8]

O.O.O.O.O.O.[Cl-].[Cl-].[Sr+2] [STRONTIUM CHLORIDE HEXAHYDRATE]
Not Active: IC50 [1] | IC50 [2] | Ki [2] | IC50 [3] | IC50 [4] | IC50 [5] | Ki [5] | IC50 [6] | Ki [6] | IC50 [7] | Ki [7] | IC50 [8]

O=C1C(CC[S+]([O-])c2ccccc2)C(=O)N(c2ccccc2)N1c1ccccc1 (stereo not given) [SULFINPYRAZONE]
Not Active: IC50 [1] | IC50 [2] | Ki [2] | IC50 [3] | IC50 [4] | IC50 [5] | Ki [5] | IC50 [6] | Ki [6] | IC50 [7] | Ki [7] | IC50 [8]

NC(=O)N1C(=O)/C(=C(\O)c2cccs2)c2cc(Cl)ccc21 [TENIDAP]
Not Active: IC50 [1] | IC50 [2] | Ki [2] | IC50 [3] | IC50 [4] | IC50 [5] | Ki [5] | IC50 [6] | Ki [6] | IC50 [7] | Ki [7] | IC50 [8]

COc1cc2nc(N3CCN(C(=O)C4CCCO4)CC3)nc(N)c2cc1OC (stereo not given) [TERAZOSIN]
Not Active: IC50 [1] | IC50 [2] | Ki [2] | IC50 [3] | IC50 [4] | IC50 [5] | Ki [5] | IC50 [6] | Ki [6] | IC50 [7] | Ki [7] | IC50 [8]

CS(=O)(=O)c1ccc([C@@H](O)[C@@H](CO)NC(=O)C(Cl)Cl)cc1 [THIAMPHENICOL]
Not Active: IC50 [1] | IC50 [2] | Ki [2] | IC50 [3] | IC50 [4] | IC50 [5] | Ki [5] | IC50 [6] | Ki [6] | IC50 [7] | Ki [7] | IC50 [8]

CCN(CC)CCNC(=O)c1cc(S(C)(=O)=O)ccc1OC [TIAPRIDE]
Not Active: IC50 [1] | IC50 [2] | Ki [2] | IC50 [3] | IC50 [4] | IC50 [5] | Ki [5] | IC50 [6] | Ki [6] | IC50 [7] | Ki [7] | IC50 [8]

NC1CCN(c2nc3c(cc2F)c(=O)c(C(=O)O)cn3-c2ccc(F)cc2F)C1 (stereo not given) [TOSUFLOXACIN]
Not Active: IC50 [1] | IC50 [2] | Ki [2] | IC50 [3] | IC50 [4] | IC50 [5] | Ki [5] | IC50 [6] | Ki [6] | IC50 [7] | Ki [7] | IC50 [8]

CC(c1cc2ccccc2s1)N(O)C(N)=O (stereo not given) [ZILEUTON]
Not Active: IC50 [1] | IC50 [2] | Ki [2] | IC50 [3] | IC50 [4] | IC50 [5] | Ki [5] | IC50 [6] | Ki [6] | IC50 [7] | Ki [7] | IC50 [8]
